Laboratory results published in patent US8263353B2, “Method for detecting autoprocessed, secreted PCSK9” (Merck Sharp & Dohme Corp., priority 2007, dated 2012).

Assays:
Format in all cases: cell-based
[1] = tested on: diI-LDL uptake in HEK293 cells; assay: DiI-LDL uptake assay (PCSK9-dependent LDL-uptake assay)
Experimental: Blood for LDL isolation was obtained from healthy human volunteers. Blood (200 ml) was collected in EDTA tubes and spun at 15,000 rpm for 15 min at 4° C. Plasma density was adjusted to 1.02 g/ml with sodium bromide and the tubes were centrifuged at 45,000 rpm in Ti70 ultracentrifuge rotor for 20 hr. The VLDL layer was removed and the bottom layer was recalibrated to a density of 1.063 g/ml with sodium bromide. The tubes were again centrifuged at 45,000 rpm in Ti70 rotor for 72 hr. The LDL layer was removed and dialysed against PBS pH 7.4 and 0.5 M EDTA. The final protein concentration was determined using a BCA Protein Assay Kit. LDL was labeled with a fluorescent DiI particle (Molecular Probes). A stock solution containing 3 mg of DiI dissolved in 1 ml of dimethyl sulfoxide (DMSO) was prepared. This stock solution of D11 was added to LDL at a final concentration of 135 μg of DiI to 1 ml of LDL. The labeling reaction was incubated at 37° C. for 24 hr in the dark followed by LDL isolation as mentioned above.
HEK293 cells stably expressing the vector pcDNA3.1 alone were plated in a 96-well poly D-lysine coated plate (Corning) at a density of 30,000 cells/well in 1×DMEM, containing 1 mg/ml G418 and 10% FBS (HEK293). A similar plating protocol was followed for HepG2 and CHO cells except that G418 was not added to the media. After 24 hr, the media was switched to DMEM media lacking serum. After 18 hr, the media was removed and the cells were washed with OptiMEM (Invitrogen). Purified PCSK9 protein was added to the cells in 100 μl of mixture B (DMEM containing 10% lipoprotein deficient serum (LPDS) (Intracel) and 10 μg/ml dI-LDL). To measure non-specific binding, 100 μl of mixture B that also contained 400 μg/ml unlabeled LDL was added to control wells. The plates were incubated at 37° C. for 6.5 hours and the cells were washed quickly in Tris-buffered saline (TBS, Biorad) containing 2 mg/ml Bovine Serum Albumin (BSA) (Sigma). The wash step was repeated, but this time the wash buffer was incubated for 2 min with the cells. Last, the cells were quickly washed twice with TBS (without BSA) and lysed in 100 μl RIPA buffer. The lysate was transferred to a 96-well black plate (Thermo Labsystem) and fluorescence was measured using a SpectraMAX tunable spectrofluorometer (Molecular Devices) at an excitation wavelength of 520 nm and an emission wavelength of […] Total cellular protein was measured in each well using a BCA Protein Assay and the fluorescence units were normalized to total protein. The amount of specific LDL uptake (specific counts) is the difference between the total counts measured (in the absence of unlabeled LDL) and the counts measured in the presence of an excess of unlabeled LDL (non-specific background fluorescence). […]

PCSK9 processing [2] = target: T1, PCSK9 processing (Homo sapiens, UniProt Q8NBP7, G670E/V474I); assay: Co-transfection of PCSK9 pro domain with wild type V5/His-tagged PCSK9, western blot of cell lysate and media; settings: co-transfected pro domain
T1 construct: expressed in transfected cells
T1 sequence (Q8NBP7 31-692 V474I/G670E): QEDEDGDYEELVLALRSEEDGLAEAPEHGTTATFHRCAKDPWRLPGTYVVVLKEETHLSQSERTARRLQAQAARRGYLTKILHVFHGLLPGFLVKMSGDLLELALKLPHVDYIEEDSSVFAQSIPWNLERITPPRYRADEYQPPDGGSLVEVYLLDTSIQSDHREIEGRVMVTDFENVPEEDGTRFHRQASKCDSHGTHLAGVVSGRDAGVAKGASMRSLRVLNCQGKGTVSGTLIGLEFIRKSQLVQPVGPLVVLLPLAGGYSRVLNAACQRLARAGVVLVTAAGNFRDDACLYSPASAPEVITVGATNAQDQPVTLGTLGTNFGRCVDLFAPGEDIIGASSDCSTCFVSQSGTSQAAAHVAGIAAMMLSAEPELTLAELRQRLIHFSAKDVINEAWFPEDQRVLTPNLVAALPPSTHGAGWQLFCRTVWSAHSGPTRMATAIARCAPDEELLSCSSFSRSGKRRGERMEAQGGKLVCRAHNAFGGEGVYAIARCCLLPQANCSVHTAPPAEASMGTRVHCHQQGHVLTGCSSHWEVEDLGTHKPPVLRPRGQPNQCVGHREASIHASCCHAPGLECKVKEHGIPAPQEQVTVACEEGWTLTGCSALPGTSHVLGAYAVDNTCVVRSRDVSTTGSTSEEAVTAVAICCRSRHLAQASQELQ
Experimental: FIGS. 10A and 10B illustrate inhibition of PSCK9 processing through co-transfection of PCSK9 pro domain. The figure illustrates the inhibition of PCSK9 processing is similar whether the domain is untagged, or tagged at the N-terminus with either an HA or His tag. […] The lanes are in order wild-type; wild-type; pro domain; HA pro domain; His pro domain.
Cells carrying vector alone (pcDNA3.1) or vector plus PCSK9 (PCSK9-152 FLAG-V5/His and PCSK9-152 FLAG-V5/His-S386A) were plated in 1×DMEM containing 1 mg/ml G418 supplemented with 10% FBS. After 24 hr, the media was switched to DMEM media lacking serum. After an additional 6 hr, the media was removed and the cells were lysed in RIPA buffer (TEKNOVA) plus Complete protease inhibitor cocktail (Roche). Protein concentration was assayed with BCA Protein Assay Kit (Pierce). […] of proteins from lysate or 15 μl media were loaded on 10-20% Tris-Glycine gels (Invitrogen). Following transfer, membranes were successively incubated with 1:5000 anti-VS (Invitrogen), 1:3000 anti-FLAG ml (Sigma-Aldrich Co.) or 1:3000 anti_FLAG m2 (Sigma-Aldrich Co.) primary antibody and 1:3000 anti-mouse IgG (H+L) alkaline phosphatase conjugate (Promega). Bands were subsequently detected using a 1-step NBT/BCIP Kit (Pierce) according to manufacturer's instructions. […]

PCSK9 processing [3] = target: T2, PCSK9 processing (Homo sapiens, UniProt Q8NBP7, D186A/G670E/V474I); assay: Western blot of HEK293 cells stably expressing PCSK9 mutant D186A; settings: HEK293 stable cell line; FIG. 11A
T2 construct: expressed in transfected cells
T2 sequence (Q8NBP7 31-692 D186A/V474I/G670E): as the sequence (Q8NBP7 31-692 V474I/G670E) above, with D156A counted along it
Experimental: Cells carrying vector alone (pcDNA3.1) or vector plus PCSK9 (PCSK9-152 FLAG-V5/His and PCSK9-152 FLAG-V5/His-S386A) were plated in 1×DMEM containing 1 mg/ml G418 supplemented with 10% FBS. After 24 hr, the media was switched to DMEM media lacking serum. After an additional 6 hr, the media was removed and the cells were lysed in RIPA buffer (TEKNOVA) plus Complete protease inhibitor cocktail (Roche). Protein concentration was assayed with BCA Protein Assay Kit (Pierce). […] of proteins from lysate or 15 μl media were loaded on 10-20% Tris-Glycine gels (Invitrogen). Following transfer, membranes were successively incubated with 1:5000 anti-VS (Invitrogen), 1:3000 anti-FLAG ml (Sigma-Aldrich Co.) or 1:3000 anti_FLAG m2 (Sigma-Aldrich Co.) primary antibody and 1:3000 anti-mouse IgG (H+L) alkaline phosphatase conjugate (Promega). Bands were subsequently detected using a 1-step NBT/BCIP Kit (Pierce) according to manufacturer's instructions.
420:55-67. […] Media from the D186A stable cell line was purified using column chromatography (as described) to obtain both purified nonprocessed and processed D186A (FIG. 11B). Similar to the WT PCSK9 protein processed D186A retains the pro domain after several column purifications (FIG. 11B).

nonprocessed D186A: Purified secreted, nonprocessed form of human PCSK9 mutant D186A (SEQ ID NO: 34)
fold less active than processed PCSK9 in PCSK9-dependent LDL uptake ([1]; FIG. 11C): ~20 fold | activity in PCSK9-dependent LDL-uptake assay ([1]; HEK293 cells, purified protein, FIG. 11C): only weakly active

PCSK9 pro domain: Human PCSK9 pro domain (SEQ ID NO: 20, residues 31-152) expressed from co-transfected nucleic acid
amount of processed PCSK9 in cell lysate compared to cells expressing wild type alone (PCSK9 processing [2]; cell lysate, FIG. 10A): reduced | processed PCSK9 detected in the media (PCSK9 processing [2]; media, FIG. 10B): less processed PCSK9 was detected

D186A PCSK9 mutant: Human PCSK9 single catalytic-triad mutant D186A stably expressed in HEK293 cells
extent of processing (PCSK9 processing [3]): 10-20%

processed D186A: Purified secreted, autoprocessed form of human PCSK9 catalytic-triad mutant D186A, retaining the pro domain
fold weaker in potency than WT PCSK9 ([1]; HEK293 cells): approximately 4 fold | EC50 ([1]; HEK293 cells, purified protein, FIG. 11C, read-out: EC50 (amount of PCSK9 protein required for 50% inhibition of diI-LDL uptake)): 189 nM
